The target of this test is T1, F508del (Homo sapiens, UniProt P13569, DEL508-508).
T1 construct: expressed in transfected cells
T1 sequence (P13569 with tags, fused parts or gaps DEL508-508): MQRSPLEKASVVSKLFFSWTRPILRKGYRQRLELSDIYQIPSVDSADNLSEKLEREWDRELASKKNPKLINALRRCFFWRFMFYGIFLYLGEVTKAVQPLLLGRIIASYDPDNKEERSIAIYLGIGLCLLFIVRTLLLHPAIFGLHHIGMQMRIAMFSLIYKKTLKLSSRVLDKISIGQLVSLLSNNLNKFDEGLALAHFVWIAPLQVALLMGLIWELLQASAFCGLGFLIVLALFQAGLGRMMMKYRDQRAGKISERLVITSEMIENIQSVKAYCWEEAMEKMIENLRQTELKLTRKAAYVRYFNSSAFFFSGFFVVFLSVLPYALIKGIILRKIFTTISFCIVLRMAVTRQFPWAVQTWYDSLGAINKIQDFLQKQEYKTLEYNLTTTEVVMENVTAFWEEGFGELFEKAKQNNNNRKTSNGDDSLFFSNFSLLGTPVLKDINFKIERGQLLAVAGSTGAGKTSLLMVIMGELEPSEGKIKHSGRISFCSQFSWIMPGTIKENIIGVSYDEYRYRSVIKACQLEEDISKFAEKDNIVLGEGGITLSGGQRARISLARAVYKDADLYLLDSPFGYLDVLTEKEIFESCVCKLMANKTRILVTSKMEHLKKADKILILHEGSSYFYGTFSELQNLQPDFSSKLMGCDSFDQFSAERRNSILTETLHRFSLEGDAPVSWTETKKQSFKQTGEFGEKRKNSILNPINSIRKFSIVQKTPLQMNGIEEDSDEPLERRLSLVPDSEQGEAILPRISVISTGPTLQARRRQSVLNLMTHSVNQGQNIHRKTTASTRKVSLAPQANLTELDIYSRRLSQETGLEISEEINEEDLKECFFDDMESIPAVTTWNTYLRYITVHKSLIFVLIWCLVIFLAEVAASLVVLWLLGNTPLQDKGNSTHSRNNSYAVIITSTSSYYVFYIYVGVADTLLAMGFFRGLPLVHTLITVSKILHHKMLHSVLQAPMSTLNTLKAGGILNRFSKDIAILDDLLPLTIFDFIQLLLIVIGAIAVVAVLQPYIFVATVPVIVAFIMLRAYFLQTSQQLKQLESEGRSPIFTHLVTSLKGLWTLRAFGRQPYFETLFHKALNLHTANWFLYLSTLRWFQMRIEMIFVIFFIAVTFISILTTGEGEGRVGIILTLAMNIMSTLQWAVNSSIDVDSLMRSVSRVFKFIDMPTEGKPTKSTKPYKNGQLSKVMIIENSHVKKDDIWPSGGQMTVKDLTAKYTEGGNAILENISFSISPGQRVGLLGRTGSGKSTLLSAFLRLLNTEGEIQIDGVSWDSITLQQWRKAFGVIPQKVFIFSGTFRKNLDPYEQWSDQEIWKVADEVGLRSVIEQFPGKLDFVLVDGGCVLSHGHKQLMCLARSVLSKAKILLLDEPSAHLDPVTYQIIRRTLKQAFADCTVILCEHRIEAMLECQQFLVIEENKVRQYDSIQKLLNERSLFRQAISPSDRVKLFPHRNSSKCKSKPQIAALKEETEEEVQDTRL
Put plainly: Protocol 1: membrane potential optical assay (FLIPR III, voltage sensing dye), identification of potentiator compounds. Format: cell-based. As to conditions: Table 3, compounds of Table 1. The essentials:
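Membrane potential in forskolin-activated, temperature-rescued F508del NIH 3T3 cells is followed with a voltage-sensing dye on FLIPR III. A chloride ion gradient created at the single addition step provides the driving force, after prior compound treatment.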
In the case of `CC(C)COc1cc(F)cc(-c2ccc(C(=O)NS(=O)(=O)c3cccc(N)n3)c(N3CCC(C)(C)CC3)n2)c1` [Compound 1279, N-[(6-amino-2-pyridyl)sulfonyl]-2-(4,4-dimethyl-1-piperidyl)-6-(3-fluoro-5-isobutoxy-phenyl)pyridine-3-carboxamide], the EC30 entry is on record as “+++ (“+++” means <3 uM)”.

As for `Cc1ccc(-c2ccc(C(=O)NS(=O)(=O)c3cccc(N)n3)c(Oc3c(C)cc(C)cc3C)n2)cc1` [Compound 1035, N-[(6-amino-2-pyridyl)sulfonyl]-6-(p-tolyl)-2-(2,4,6-trimethylphenoxy)pyridine-3-carboxamide], the EC30 result is given as “+++ (“+++” means <3 uM)”.

Take `CC(C)COc1cc(F)cc(-c2ccc(C(=O)NS(=O)(=O)c3cccc(N)n3)c(N3CCCC3C(C)C)n2)c1` (stereo not drawn) [Compound 1258, N-[(6-amino-2-pyridyl)sulfonyl]-6-(3-fluoro-5-isobutoxy-phenyl)-2-(2-isopropylpyrrolidin-1-yl)pyridine-3-carboxamide]: the EC30 entry was “+++ (“+++” means <3 uM)”.

Regarding `COc1ccccc1COc1cccc(S(=O)(=O)NC(=O)c2cccnc2N2CC(C)CC2(C)C)n1` (stereo not drawn) [Compound 1965, N-[[6-[(2-methoxyphenyl)methoxy]-2-pyridyl]sulfonyl]-2-(2,2,4-trimethylpyrrolidin-1-yl)pyridine-3-carboxamide], the EC30 result is “+++ (“+++” means <3 uM)”.

With `CCOc1cccc2c1CN(Cc1ccc(Cl)nc1)C2(C)C(=O)NS(=O)(=O)c1cccc(N)n1` (stereo not drawn) [Compound 1565, N-[(6-amino-2-pyridyl)sulfonyl]-2-[(6-chloro-3-pyridyl)methyl]-4-ethoxy-1-methyl-isoindoline-1-carboxamide], the EC30 entry is “+ (“+” means greater than 10 uM)”.

Take `CC(C)Cn1cc(-c2ccc(C(=O)NS(=O)(=O)c3nccnc3N)c(N3CCC(C)CC3)n2)cn1` [Compound 1288, N-(3-aminopyrazin-2-yl)sulfonyl-6-(1-isobutylpyrazol-4-yl)-2-(4-methyl-1-piperidyl)pyridine-3-carboxamide]: the EC30 result is “++ (“++” means between 3 uM and 10 uM)”.

For `CC(C)COc1ccc(F)c(-c2ccc(C(=O)NS(=O)(=O)c3cccc(N)n3)c(N3CC(C)CC3(C)C)n2)c1` (stereo not drawn) [Compound 1194, N-[(6-amino-2-pyridyl)sulfonyl]-6-(2-fluoro-5-isobutoxy-phenyl)-2-(2,2,4-trimethylpyrrolidin-1-yl)pyridine-3-carboxamide], the EC30 result was “+++ (“+++” means <3 uM)”.

Consider `Cc1cc(C)c(Oc2nc(C3(C)CC3)ccc2C(=O)NS(=O)(=O)c2ccc(N)cc2)c(C)c1` [Compound 1297, N-(4-aminophenyl)sulfonyl-6-(1-methylcyclopropyl)-2-(2,4,6-trimethylphenoxy)pyridine-3-carboxamide], for which the EC30 result is reported as “+++ (“+++” means <3 uM)”.

Take `COc1ncccc1-c1ccc(C(=O)NS(=O)(=O)c2cccnc2N)c(N2C[C@@H](C)CC2(C)C)n1` [Compound 1980, N-[(2-amino-3-pyridyl)sulfonyl]-6-(2-methoxy-3-pyridyl)-2-[(4S)-2,2,4-trimethylpyrrolidin-1-yl]pyridine-3-carboxamide]: the EC30 entry is recorded as “+++ (“+++” means <3 uM)”.

On to `Cc1cc(C)c(Oc2nc(C3=CCC(C(F)(F)F)CC3)ccc2C(=O)NS(=O)(=O)c2cccc(N)n2)c(C)c1` (stereo not drawn) [Compound 1402, N-[(6-amino-2-pyridyl)sulfonyl]-6-[4-(trifluoromethyl)cyclohexen-1-yl]-2-(2,4,6-trimethylphenoxy)pyridine-3-carboxamide], for which the EC30 entry was “+++ (“+++” means <3 uM)”.

Regarding `COc1cc(-c2ccc(C(=O)NS(=O)(=O)c3cccc(N)n3)c(Oc3c(C)cc(C)cc3C)n2)ccc1C#N` [Compound 923, N-[(6-amino-2-pyridyl)sulfonyl]-6-(4-cyano-3-methoxy-phenyl)-2-(2,4,6-trimethylphenoxy)pyridine-3-carboxamide], the EC30 result is “+++ (“+++” means <3 uM)”.

In the case of `CCC(Oc1nc(C(C)(C)C)ccc1C(=O)NS(=O)(=O)c1cccc(N)n1)c1ccccc1` (stereo not drawn) [Compound 1045, N-[(6-amino-2-pyridyl)sulfonyl]-6-tert-butyl-2-(1-phenylpropoxy)pyridine-3-carboxamide], the EC30 result was “++ (“++” means between 3 uM and 10 uM)”.

Regarding `CC1CN(c2nc(-c3cnc(OC(C)C)cn3)ccc2C(=O)NS(=O)(=O)c2cccc(N)n2)C(C)(C)C1` (stereo not drawn) [Compound 965, N-[(6-amino-2-pyridyl)sulfonyl]-6-(5-isopropoxypyrazin-2-yl)-2-(2,2,4-trimethylpyrrolidin-1-yl)pyridine-3-carboxamide], the EC30 result was “+++ (“+++” means <3 uM)”.

As to `CC1CN(c2ncccc2C(=O)NS(=O)(=O)c2cccc(OCCc3ccc(F)cc3)n2)C(C)(C)C1` (stereo not drawn) [Compound 1704, N—[[6-[2-(4-fluorophenyl)ethoxy]-2-pyridyl]sulfonyl]-2-(2,2,4-trimethylpyrrolidin-1-yl)pyridine-3-carboxamide], the EC30 result is “+++ (“+++” means <3 uM)”.

As for `CC(C)COc1cc(F)cc(-c2ccc(C(=O)NS(=O)(=O)c3cccc(N)n3)c(N3CC(=O)CC3(C)C)n2)c1` [Compound 1073, N-[(6-amino-2-pyridyl)sulfonyl]-2-(2,2-dimethyl-4-oxo-pyrrolidin-1-yl)-6-(3-fluoro-5-isobutoxy-phenyl)pyridine-3-carboxamide], the EC30 result is “+ (“+” means greater than 10 uM)”.

Regarding `Cc1cc(C)c(Oc2ncc(-c3ccccc3)cc2C(=O)NS(=O)(=O)c2cccc(N)c2)c(C)c1` [Compound 1321, N-(3-aminophenyl)sulfonyl-5-phenyl-2-(2,4,6-trimethylphenoxy)pyridine-3-carboxamide], the EC30 entry was “++ (“++” means between 3 uM and 10 uM)”.

`CC1CN(c2ncccc2C(=O)NS(=O)(=O)c2cccc(Oc3cncc(Cl)c3)n2)C(C)(C)C1` (stereo not drawn) [Compound 1957, N—[[6-[(5-chloro-3-pyridyl)oxy]-2-pyridyl]sulfonyl]-2-(2,2,4-trimethylpyrrolidin-1-yl)pyridine-3-carboxamide]: the EC30 result was “++ (“++” means between 3 uM and 10 uM)”.

Consider `CC1CN(c2nc(C(C)(C)C)ccc2C(=O)NS(=O)(=O)c2cccc(N)n2)C(C)(C)C1` (stereo not drawn) [Compound 1511], for which the EC30 result is “+++ (“+++” means <3 uM)”.

Take `CC(C)COc1cc(F)cc(-c2ccc(C(=O)NS(=O)(=O)c3cccc(N)n3)c(N3CCCCC(C)(C)C3)n2)c1` [Compound 1901, N-[(6-amino-2-pyridyl)sulfonyl]-2-(3,3-dimethylazepan-1-yl)-6-(3-fluoro-5-isobutoxy-phenyl)pyridine-3-carboxamide]: the EC30 entry was “+++ (“+++” means <3 uM)”.

For the compound `COc1ccc(F)cc1-c1ccc(C(=O)NS(=O)(=O)c2ccc[nH]c2=O)c(Oc2c(C)cc(C)cc2C)n1` [Compound 1151, 6-(5-fluoro-2-methoxy-phenyl)-N-[(2-oxo-1H-pyridin-3-yl)sulfonyl]-2-(2,4,6-trimethylphenoxy)pyridine-3-carboxamide], the EC30 result is “++ (“++” means between 3 uM and 10 uM)”.

Take `C[C@@H]1CN(c2nc(-c3ccccc3C(F)(F)F)ccc2C(=O)NS(=O)(=O)c2ccc[nH]c2=O)C(C)(C)C1` [Compound 1960, N-[(2-oxo-1H-pyridin-3-yl)sulfonyl]-6-[2-(trifluoromethyl)phenyl]-2-[(4S)-2,2,4-trimethylpyrrolidin-1-yl]pyridine-3-carboxamide]: the EC30 result is on record as “+++ (“+++” means <3 uM)”.
